The record followed here is ChEMBL document CHEMBL1201862, “PubChem BioAssay data set” (2004).

As a reminder, the IC50 is the concentration that gives 50% inhibition. As usually defined, the Ki is the dissociation constant of the complex between target and ligand, obtained from inhibition or displacement. As usually defined, the pKi is the negative decadic logarithm of the Ki, by convention in mol/L. Low values mean a high Ki, high ones a low Ki.

Active and inactive are the calls of the source.

Assay [1] has as its target T1, Tyrosyl-DNA phosphodiesterase 2 (Homo sapiens, UniProt O95551).
T1 sequence (O95551 whole entry): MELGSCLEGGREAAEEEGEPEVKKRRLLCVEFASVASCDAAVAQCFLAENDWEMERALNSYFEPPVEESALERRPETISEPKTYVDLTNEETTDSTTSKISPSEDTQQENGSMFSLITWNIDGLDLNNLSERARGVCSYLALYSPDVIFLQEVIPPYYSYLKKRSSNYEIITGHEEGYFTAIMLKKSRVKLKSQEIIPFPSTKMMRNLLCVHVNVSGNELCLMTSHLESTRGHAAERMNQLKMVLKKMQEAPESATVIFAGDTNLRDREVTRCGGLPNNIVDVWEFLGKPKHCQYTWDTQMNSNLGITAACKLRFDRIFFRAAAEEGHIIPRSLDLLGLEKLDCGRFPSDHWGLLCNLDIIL
Kind of assay: potency against TDP2 phosphodiesterase activity – biochemical, epi absorbance, IC50, dose response (AID 743297).

The target in assay [2] is T2, Receptor-type tyrosine-protein kinase FLT3 (Homo sapiens, UniProt P36888).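 Further: FLT3 was tested as one member of a kinome-wide kinase panel.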
T2 sequence (P36888 whole entry): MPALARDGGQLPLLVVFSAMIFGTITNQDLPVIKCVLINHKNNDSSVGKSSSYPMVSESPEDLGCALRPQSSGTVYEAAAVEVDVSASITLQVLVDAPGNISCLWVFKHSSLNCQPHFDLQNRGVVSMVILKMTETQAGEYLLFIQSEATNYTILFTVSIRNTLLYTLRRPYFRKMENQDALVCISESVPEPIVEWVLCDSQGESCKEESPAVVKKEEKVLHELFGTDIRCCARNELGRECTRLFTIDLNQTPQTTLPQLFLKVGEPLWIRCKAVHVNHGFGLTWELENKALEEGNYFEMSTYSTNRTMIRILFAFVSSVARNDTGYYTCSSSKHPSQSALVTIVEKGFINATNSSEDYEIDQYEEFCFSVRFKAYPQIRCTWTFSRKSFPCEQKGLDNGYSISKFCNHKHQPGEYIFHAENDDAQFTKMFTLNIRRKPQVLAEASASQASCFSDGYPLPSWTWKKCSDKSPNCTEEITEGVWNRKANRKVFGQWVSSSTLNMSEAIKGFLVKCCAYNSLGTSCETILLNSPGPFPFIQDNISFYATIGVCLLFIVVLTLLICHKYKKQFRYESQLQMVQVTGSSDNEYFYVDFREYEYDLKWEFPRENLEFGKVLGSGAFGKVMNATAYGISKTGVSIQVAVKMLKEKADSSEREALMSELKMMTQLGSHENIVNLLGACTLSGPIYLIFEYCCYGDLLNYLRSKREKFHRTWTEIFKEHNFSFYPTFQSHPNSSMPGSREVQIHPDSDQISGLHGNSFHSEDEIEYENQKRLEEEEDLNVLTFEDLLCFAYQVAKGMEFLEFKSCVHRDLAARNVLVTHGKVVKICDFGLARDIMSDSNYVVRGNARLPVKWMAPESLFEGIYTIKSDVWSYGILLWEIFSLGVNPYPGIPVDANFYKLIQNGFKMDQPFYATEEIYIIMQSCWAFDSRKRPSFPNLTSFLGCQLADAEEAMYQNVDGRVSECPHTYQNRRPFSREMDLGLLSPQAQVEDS
The assay is classed as functional.

Assay [3] deals with Dual specificity protein kinase CLK2 (Homo sapiens, UniProt P49760). The assay is classed as functional.
Chain of Dual specificity protein kinase CLK2 (P49760 whole entry): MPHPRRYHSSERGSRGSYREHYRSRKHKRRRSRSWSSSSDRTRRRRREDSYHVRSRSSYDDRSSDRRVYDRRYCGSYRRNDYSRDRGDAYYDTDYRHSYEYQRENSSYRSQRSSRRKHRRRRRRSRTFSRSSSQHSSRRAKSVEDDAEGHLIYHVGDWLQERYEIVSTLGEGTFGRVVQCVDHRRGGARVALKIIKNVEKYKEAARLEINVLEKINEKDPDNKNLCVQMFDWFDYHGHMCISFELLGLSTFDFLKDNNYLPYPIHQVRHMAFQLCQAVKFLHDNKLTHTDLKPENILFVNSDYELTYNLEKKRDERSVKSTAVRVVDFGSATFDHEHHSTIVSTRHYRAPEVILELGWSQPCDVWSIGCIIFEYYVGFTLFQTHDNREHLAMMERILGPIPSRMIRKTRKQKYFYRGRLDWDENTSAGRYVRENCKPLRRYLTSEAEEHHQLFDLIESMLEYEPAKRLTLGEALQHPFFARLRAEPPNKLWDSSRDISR
Assay [4] has as its target T3, Mitogen-activated protein kinase kinase kinase kinase 2 (Homo sapiens, UniProt Q12851).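 Further: measured as one member of a kinome-wide kinase panel, with MAP4K2 as the panel entry.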
T3 sequence (Q12851 whole entry): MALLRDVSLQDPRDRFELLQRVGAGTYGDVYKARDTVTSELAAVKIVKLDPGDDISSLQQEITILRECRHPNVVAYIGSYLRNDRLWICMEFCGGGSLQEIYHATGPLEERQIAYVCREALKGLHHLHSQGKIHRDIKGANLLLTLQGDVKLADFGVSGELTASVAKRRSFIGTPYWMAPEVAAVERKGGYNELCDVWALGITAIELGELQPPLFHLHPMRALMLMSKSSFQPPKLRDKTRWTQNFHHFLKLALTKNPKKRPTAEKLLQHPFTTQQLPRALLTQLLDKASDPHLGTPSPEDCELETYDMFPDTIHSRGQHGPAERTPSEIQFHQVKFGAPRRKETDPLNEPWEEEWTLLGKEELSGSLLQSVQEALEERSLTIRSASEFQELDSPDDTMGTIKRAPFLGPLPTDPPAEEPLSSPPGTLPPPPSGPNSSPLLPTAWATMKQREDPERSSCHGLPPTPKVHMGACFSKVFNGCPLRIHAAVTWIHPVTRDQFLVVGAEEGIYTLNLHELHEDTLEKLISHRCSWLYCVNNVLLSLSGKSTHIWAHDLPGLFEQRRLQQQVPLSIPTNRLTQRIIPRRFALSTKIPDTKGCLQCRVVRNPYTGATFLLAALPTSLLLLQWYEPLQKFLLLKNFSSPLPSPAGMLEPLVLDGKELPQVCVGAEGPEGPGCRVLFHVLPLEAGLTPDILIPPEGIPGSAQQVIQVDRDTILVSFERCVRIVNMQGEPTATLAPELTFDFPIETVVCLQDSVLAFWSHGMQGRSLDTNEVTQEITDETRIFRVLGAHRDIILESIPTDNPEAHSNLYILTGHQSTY
The assay is classed as functional.

For assay [5], the target named is Vascular endothelial growth factor receptor 1 (Homo sapiens, UniProt P17948). Type of assay: functional.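 Further: measured within a kinome-wide profiling panel, FLT1 as the panel member.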
Chain of Vascular endothelial growth factor receptor 1 (P17948 whole entry): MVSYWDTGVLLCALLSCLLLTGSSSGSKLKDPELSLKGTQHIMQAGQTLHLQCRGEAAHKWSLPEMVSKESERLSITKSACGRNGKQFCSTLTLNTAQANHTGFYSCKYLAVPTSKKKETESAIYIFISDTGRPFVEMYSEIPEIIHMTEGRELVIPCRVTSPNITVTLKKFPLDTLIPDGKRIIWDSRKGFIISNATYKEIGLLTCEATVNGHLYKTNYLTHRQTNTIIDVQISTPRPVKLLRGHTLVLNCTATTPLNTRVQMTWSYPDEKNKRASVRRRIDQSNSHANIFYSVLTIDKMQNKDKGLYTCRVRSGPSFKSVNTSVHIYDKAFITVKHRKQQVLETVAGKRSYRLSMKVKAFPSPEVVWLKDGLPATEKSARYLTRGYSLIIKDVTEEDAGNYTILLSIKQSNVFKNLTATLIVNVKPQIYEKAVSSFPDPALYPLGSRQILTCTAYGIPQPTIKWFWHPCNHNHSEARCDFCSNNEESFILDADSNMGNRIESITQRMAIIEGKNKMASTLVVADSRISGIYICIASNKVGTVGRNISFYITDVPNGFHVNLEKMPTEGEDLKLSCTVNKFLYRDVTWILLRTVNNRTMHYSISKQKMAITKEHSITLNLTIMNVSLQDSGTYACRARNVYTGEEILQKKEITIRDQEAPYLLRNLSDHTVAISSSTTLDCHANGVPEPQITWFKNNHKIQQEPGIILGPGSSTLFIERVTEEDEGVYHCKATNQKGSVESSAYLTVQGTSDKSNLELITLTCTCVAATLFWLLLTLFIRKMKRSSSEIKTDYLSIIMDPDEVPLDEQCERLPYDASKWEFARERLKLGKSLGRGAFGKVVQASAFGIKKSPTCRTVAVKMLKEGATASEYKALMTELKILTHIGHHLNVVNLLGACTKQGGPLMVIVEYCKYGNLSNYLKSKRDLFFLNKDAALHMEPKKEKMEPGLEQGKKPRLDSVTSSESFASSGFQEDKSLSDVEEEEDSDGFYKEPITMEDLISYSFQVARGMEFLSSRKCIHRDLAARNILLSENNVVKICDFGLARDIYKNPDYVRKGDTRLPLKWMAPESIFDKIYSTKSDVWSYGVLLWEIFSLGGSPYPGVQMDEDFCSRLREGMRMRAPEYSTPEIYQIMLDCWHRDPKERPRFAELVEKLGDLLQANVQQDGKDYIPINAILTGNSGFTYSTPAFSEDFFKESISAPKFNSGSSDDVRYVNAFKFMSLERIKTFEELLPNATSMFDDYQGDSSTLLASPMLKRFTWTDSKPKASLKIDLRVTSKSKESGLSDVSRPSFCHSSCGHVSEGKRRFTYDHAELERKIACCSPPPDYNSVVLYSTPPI

Regarding `O=C(COC(=O)c1ccc([N+](=O)[O-])s1)Nc1ccc(F)cc1`, the IC50 in assay [1] was 64.2 µM (inactive).

Consider `CCN(CC)CCCC(C)n1c2nc(=O)[nH]c(=O)c-2nc2cc(Cl)ccc21` (centres undefined), for which the IC50 in assay [1] was 10.5 µM (inactive).

With `OC1CCC(Nc2nc(Cl)cc(-c3c[nH]c4ncccc34)n2)CC1` (centres undefined), the Ki is 0.0126 µM (active) in assay [2], 0.00794 µM (active) in assay [3], 0.0398 µM (active) in assay [4] and 0.158 µM (active) in assay [5]. The pKi is 7.9 in assay [2], 8.1 in assay [3], 7.4 in assay [4] and 6.8 in assay [5].

As for `COc1cccc(CNC(=O)c2cnc(-c3ccncc3)nc2)c1`, the Ki in assay [2] was > 3.16 µM (inactive); in assay [3] it was > 3.98 µM (inactive); in assay [4] it was > 2.51 µM (inactive); in assay [5], > 3.98 µM (inactive).
